Key:
Assay in all cases: Cysteine reactivity ABPP
Format in all cases: binding
[1] = target: T1, ACAT1 Acetyl-CoA acetyltransferase, mitochondrial C119 (P24752) (Homo sapiens, UniProt P24752)
T1 construct: endogenous in cells; host or cells: primary human T cells
T1 sequence (P24752 34-427): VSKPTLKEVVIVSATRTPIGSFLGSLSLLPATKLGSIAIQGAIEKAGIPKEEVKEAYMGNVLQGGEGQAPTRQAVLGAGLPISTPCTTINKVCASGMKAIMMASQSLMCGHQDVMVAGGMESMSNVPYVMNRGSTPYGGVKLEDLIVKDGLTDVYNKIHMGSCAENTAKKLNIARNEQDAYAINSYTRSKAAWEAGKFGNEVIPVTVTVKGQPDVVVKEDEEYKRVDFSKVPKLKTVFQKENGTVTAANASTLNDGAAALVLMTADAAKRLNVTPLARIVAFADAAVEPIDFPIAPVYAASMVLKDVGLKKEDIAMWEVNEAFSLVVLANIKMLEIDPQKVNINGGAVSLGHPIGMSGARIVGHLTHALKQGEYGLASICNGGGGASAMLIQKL
Description: (§1) Activated or expanded primary human T cells were re-suspended in RPMI (1×10^6 cells/mL) containing 10% fetal bovine serum (FBS), penicillin (100 U/mL), streptomycin ([…]), and L-glutamine (2 mM). The cells were treated with DMSO or compounds for 3 h, pelleted (524 g, 5 min), washed with PBS, and lysed by sonication (2×8 pulses). Soluble and particulate proteomic fractions were separated by ultracentrifugation (100,000 g, 45 min), and protein concentration was normalized to 1.7 mg/mL using a standard DC protein assay (Bio-Rad). The resulting proteomes were analyzed by competitive isotopic Tandem Orthogonal Proteolysis Activity-Based Protein Profiling (isoTOP-ABPP).
(§2) The heavy/light isoTOP-ABPP ratios (R values) for each unique peptide (DMSO/compound treated) were quantified with in-house CIMAGE software (Weerapana et al., 2010) using default parameters (3 MS1 acquisitions per peak and signal to noise threshold set to 2.5). Site-specific engagement of cysteine residues was assessed by blockade of IA-alkyne probe labeling. […] Ratios for unique peptide sequences were calculated for each experiment; overlapping peptides with the same modified cysteine (e.g., different charge states, elution times or tryptic termini) were grouped together and the median ratio was reported as the final ratio (R). Additionally, ratios for peptide sequences containing multiple cysteines were grouped together. When aggregating data across experimental replicates, the mean of each experimental median R was reported. The peptide ratios reported by CIMAGE were further filtered to ensure the removal or correction of low-quality ratios in each individual dataset. The quality filters applied were the following: removal of half-tryptic peptides, removal of peptides with more than one tryptic miscleaved, removal of peptides with R=20 and only a single MS2 event triggered during the elution of the parent ion, removal of non-unique peptides. Further filtering was then performed as described below for each experiment type.
(§3) Samples (500 μL, 1.7 mg/mL) were treated with iodoacetamide desthiobiotin (IA-DTB, 5 μL of 10 mM stock in DMSO, final concentration: 100 μM) for 1 h at ambient temperature. Ice-cold MeOH (500 μL) and CHCl3 (200 μL) were then added, the mixture was vortexed and centrifuged (10,000 g, 10 min, 4° C.) to afford a protein disc at the interface of CHCl3 and aqueous layers. Both layers were aspirated without perturbing the disk, which was re-suspended in cold methanol (500 μL) and CHCl3 (200 μL) by sonication. The proteins were pelleted (10,000 g, 10 min, 4° C.), and the resulting pellets were re-suspended in a buffer (90 μL) containing 9M urea, 10 mM DTT and 50 mM triethylammonium bicarbonate ( 1/20 dilution of 1.0 M stock solution, pH 8.5) by thorough pipetting up and down. The resulting mixture was heated at 65° C. for 20 min. Sample was cooled to room temp, iodoacetamide (10 μL, 500 mM solution in H2O) was added, and the samples were incubated at 37° C. for 30 min with shaking.
(§4) At individual TMT experiment level, the following filters were applied to remove low-quality peptides: removal of non-unique peptides; removal of half-tryptic peptides; removal of peptides with more than one internal miscleaved site; removal of peptides with low (<10,000) sum of reporter ion intensities for control channels, and peptides with high variation between the replicate control channels (coefficient of variance >0.5). R values (compound-treated vs. DMSO-treated) for each peptide entry were calculated using the reporter ion intensities of DMSO and compound treated TMT channels for each treatment group with a maximum ratio cap of 20. […]

[2] = target: T2, TYK2 Non-receptor tyrosine-protein kinase TYK2 C838 (P29597) (Homo sapiens, UniProt P29597)
T2 construct: endogenous in cells; host or cells: primary human T cells
T2 sequence (P29597 whole entry): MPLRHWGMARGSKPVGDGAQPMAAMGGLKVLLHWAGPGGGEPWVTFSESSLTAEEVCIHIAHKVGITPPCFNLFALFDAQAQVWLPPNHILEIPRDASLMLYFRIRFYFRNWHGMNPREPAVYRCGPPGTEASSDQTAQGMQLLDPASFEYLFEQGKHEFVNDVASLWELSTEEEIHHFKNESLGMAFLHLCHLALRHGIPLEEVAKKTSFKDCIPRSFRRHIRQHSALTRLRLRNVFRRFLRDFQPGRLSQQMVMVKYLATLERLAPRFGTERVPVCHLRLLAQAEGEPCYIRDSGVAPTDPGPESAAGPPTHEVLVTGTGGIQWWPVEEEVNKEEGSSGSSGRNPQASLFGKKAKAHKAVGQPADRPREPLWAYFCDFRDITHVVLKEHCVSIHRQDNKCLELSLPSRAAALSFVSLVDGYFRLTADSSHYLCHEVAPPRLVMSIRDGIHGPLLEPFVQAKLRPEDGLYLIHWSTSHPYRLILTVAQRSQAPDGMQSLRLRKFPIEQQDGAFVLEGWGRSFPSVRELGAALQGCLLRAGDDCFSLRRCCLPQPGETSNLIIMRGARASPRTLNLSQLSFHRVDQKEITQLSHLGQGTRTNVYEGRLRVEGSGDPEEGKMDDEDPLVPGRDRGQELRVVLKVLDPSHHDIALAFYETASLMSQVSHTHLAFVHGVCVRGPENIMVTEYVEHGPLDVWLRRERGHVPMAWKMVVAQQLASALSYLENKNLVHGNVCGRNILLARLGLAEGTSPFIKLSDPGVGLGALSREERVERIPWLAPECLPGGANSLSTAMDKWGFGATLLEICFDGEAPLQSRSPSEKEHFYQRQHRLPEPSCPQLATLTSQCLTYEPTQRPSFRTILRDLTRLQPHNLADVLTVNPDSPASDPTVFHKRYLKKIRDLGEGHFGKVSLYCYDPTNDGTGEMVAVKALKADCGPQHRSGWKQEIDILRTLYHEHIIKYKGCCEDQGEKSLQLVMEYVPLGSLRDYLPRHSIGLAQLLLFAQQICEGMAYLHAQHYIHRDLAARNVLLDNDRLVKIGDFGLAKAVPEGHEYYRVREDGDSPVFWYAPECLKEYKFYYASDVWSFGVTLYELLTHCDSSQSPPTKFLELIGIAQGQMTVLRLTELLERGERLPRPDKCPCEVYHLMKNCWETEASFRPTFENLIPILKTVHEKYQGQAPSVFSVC
Description: as §1, §2, §3, §4

[3] = target: T3, PDIA3 Protein disulfide-isomerase A3 C57, C60 (P30101) (Homo sapiens, UniProt P30101)
T3 construct: endogenous in cells; host or cells: primary human T cells
T3 sequence (P30101 25-505): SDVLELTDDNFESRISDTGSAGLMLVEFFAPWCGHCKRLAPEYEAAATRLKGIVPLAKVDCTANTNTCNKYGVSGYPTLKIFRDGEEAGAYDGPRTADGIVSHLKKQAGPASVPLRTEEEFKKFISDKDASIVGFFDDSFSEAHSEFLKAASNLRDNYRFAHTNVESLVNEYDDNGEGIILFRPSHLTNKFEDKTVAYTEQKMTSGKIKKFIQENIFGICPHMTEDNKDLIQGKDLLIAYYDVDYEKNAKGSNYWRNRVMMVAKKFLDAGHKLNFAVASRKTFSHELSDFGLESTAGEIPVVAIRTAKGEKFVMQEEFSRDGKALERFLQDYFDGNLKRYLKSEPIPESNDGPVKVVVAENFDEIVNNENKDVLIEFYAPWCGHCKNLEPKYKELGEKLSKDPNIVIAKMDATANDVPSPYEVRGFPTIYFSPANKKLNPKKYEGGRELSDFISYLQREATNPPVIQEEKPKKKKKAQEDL
Description: as §1, §2, §3, §4

[4] = target: T4, PFKFB3 6-phosphofructo-2-kinase/fructose-2,6-bisphosphatase 3 C440 (Q16875) (Homo sapiens, UniProt Q16875); details: 100
T4 construct: endogenous in cells; host or cells: primary human T cells
T4 sequence (Q16875 whole entry, one chain of several): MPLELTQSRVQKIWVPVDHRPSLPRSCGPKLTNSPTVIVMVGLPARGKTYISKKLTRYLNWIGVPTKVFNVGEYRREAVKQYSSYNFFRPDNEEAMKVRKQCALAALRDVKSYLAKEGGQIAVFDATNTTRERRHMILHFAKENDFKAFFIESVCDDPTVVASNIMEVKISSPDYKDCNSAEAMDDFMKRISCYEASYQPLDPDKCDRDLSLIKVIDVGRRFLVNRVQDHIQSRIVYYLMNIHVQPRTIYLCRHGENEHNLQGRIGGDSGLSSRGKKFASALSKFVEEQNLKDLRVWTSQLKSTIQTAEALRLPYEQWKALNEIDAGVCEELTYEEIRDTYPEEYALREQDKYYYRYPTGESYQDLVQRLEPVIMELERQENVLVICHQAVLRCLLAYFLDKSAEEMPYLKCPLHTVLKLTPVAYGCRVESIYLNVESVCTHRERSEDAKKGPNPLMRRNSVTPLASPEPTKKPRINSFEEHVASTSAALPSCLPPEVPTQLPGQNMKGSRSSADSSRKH
Description: as §1, §2, §3, §4

SMILES | Cysteine reactivity proteomic data ([1]; 100 μM) | Cysteine reactivity proteomic data ([1]; 500 μM) | Cysteine reactivity proteomic data ([2]; 100 μM) | Cysteine reactivity proteomic data ([2]; 500 μM) | Cysteine reactivity proteomic data [3]; 100 | Cysteine reactivity proteomic data [4] | Cysteine reactivity proteomic data ([3]; 500 μM)
O=C(CCl)N1CCN(S(=O)(=O)c2ccc(-c3ccncc3)cc2)CC1 [Compound B9] | −38.85 | 24.795 | 78.9759 | 98.8468 | 61.24 | 62.11 | 
C=CC(=O)N(Cc1cccc(Cl)c1Cl)c1ccc(Oc2ccccc2)c(C(F)(F)F)c1 [Compound K4] |  | −0.3282 |  | 22.4158 |  |  | 7.07

Reference: patent US20240123078A1, “COMPOUNDS AND METHODS FOR MODULATING IMMUNE-RELATED PROTEINS” (Vividion Therapeutics, Inc., priority 2019, published 2024)
